A short description of this data set: gradient 5% acetonitrile 3 min, to 50% in 2 min, to 85% in 15 min, held 3 min, 100 µL/min. The conditions noted are these: column: Zorbax Extend-C18 2.1 x 50 mm; eluents: water / acetonitrile, 0.1% formic acid. The procedure, abridged:
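In both positive and negative ionization mode, a quadrupole time-of-flight mass spectrometer coupled to HPLC analyzed pure standards run in mixtures of ~100 molecules. The Zorbax Extend-C18 column (2.1 × 50 mm, 1.8 μm) was operated at 100 μL/min with water and acetonitrile, each containing 0.1% formic acid. The dead volume was 40 μL and the dwell volume 900 μL. Retention time came from adduct peaks that were computationally picked and individually inspected by hand.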
In turn, `Cc1cccc(N2CCN(C(=O)c3ccc(Cn4cncn4)cc3)CC2C)c1` (centres undefined) yielded an RP-LC retention time of 676 s.

`C(=C\c1ccccc1)/CN1CCN(CCOC(c2ccccc2)c2ccccc2)CC1` yielded an RP-LC retention time of 884 s. Compound `CCc1nc2cc(-c3noc(Cc4ccsc4)n3)ccc2o1` registered an RP-LC retention time of 1030 s. Under `CCOc1ccc(S(=O)(=O)Nc2ccc(-c3cn4ccc(C)nc4n3)cc2)c(OCC)c1` stands 691 s. The result for `CCOc1ccc(CC(=O)N2C[C@@H]3C[C@H]2C[C@@H]3NC(=O)c2cccs2)cc1` reads 782 s; that for `Cc1noc(-c2nn(C)c3c2CN(C(=O)Nc2ccccc2C(F)(F)F)CC3)n1`, 709 s; that for `O=C(Nc1nc2cccc(-c3ccc(CN4CCS(=O)(=O)CC4)cc3)n2n1)C1CC1`, 687 s. The compound `CC(C)(C)NC(=O)C(=O)NCC1CCN(C(=O)COc2ccccc2)CC1` showed an RP-LC retention time of 747 s. Under `CCN1CCN(C(=O)c2nc(N(CC)CC)c3c(C)cc(C)nc3n2)CC1` stands 550 s; under `CCOc1ccc(N2CC(c3nnc(NC(=O)CCc4ccccc4)o3)CC2=O)cc1` (centres undefined), 726 s. On to `COc1ccc(S(=O)(=O)N2CCc3nc(-c4ccc(F)cc4)ncc3C2)cc1OC`, for which the RP-LC retention time worked out at 983 s. The compound `CCCCN(C)C(=O)c1cn2cc(Cl)ccc2n1` had an RP-LC retention time of 736 s.

`COc1ccc(NC(=O)NC2CCN(c3ccccc3)C2=O)c(OC)c1` (centres undefined) gave an RP-LC retention time of 761 s. Turning to `Cc1noc(C2CN(C(=O)c3ccc(C#N)cc3)CC23CCOCC3)n1` (centres undefined), the RP-LC retention time was found to be 642 s. Under `Cn1cccc1Cc1nnc(SCC(=O)NCc2ccco2)n1Cc1ccccc1` stands 708 s. Compound `CC(NC(=O)C(C)(C)C)C(=O)N1CCN(c2ccccn2)CC1` (centres undefined) registered an RP-LC retention time of 574 s. The result for `CCOC(=O)c1cc(S(=O)(=O)N2CCN(c3ncccn3)CC2)[nH]n1` reads 766 s. The result for `O=C(CN1C(=O)CCC1=O)Nc1ncc(S(=O)(=O)c2ccc([N+](=O)[O-])cc2)s1` reads 706 s. The result for `COc1ccc(F)cc1S(=O)(=O)N1CCCC(Cn2c(C3CC3)nc3cccnc32)C1` (centres undefined) reads 742 s.

In turn, `Cc1cccc(NC(=O)Cn2c(C)nc3c(sc4nc(-c5ccccc5)ccc43)c2=O)c1C` showed an RP-LC retention time of 1170 s. Regarding `CO[C@H]1CN(C(C)C)[C@H]1C1CCN(C(=O)C(C)C)CC1`, the RP-LC retention time stood at 557 s. Take `CCOC(=O)COC(=O)c1cn(-c2ccc(CC)cc2)c(=O)c2ccccc12`: the RP-LC retention time was 737 s. The result for `CC(C)C(=O)Nc1ccc(CCc2nc3ccc(C(=O)NCc4ccc5c(c4)OCO5)cc3[nH]2)cc1` reads 669 s; that for `COC(=O)c1ccc(CN2C(=O)C(O)(c3ccccc3)c3ccccc32)cc1` (centres undefined), 899 s; that for `Cc1cccc(C)c1Nc1c(-c2ccccc2)nc2cnccn12`, 865 s.

Regarding `Cc1nn(CC(=O)N2CCC(Cc3ccccc3)CC2)c(=O)c2noc(C)c12`, the RP-LC retention time was found to be 832 s. The result for `O=C(CN1CCN(Cc2ccc(F)cc2)C(=O)C1=O)N1CCN(c2cccc(Cl)c2)CC1` reads 829 s; that for `COc1ccccc1Nc1c(-c2ccc3c(c2)OCO3)nc2cnccn12`, 859 s. For `CC(C)CCN1CCC(N2CCN(S(=O)(=O)c3ccc(C(F)(F)F)cc3)CC2)C1=O` (centres undefined), the RP-LC retention time stood at 794 s.

Compound `O=C(c1cn(-c2cc(-c3nc(C4CC4)no3)ccn2)cn1)N1CCCC1` returned an RP-LC retention time of 767 s.

On to `Nc1cc(-c2cccc(F)c2)[nH]n1`, for which the RP-LC retention time amounted to 608 s. As for `Cc1ccc(C)c(NC(=O)C2(C)Oc3cccnc3N(C)C2=O)c1` (centres undefined), the RP-LC retention time came out at 836 s. The result for `CCN(CC)C(=O)c1ccc2oc(CN3CCN(C(=O)NC4CCCC4)CC3)nc2c1` reads 630 s. Under `COC(=O)c1cc(OCC(=O)Nc2ccc(F)cc2)c2cc(F)ccc2n1` stands 836 s. Turning to `COc1cccc(-c2ccc(=O)n(CCc3nc(-c4cccc(F)c4)no3)n2)c1`, the RP-LC retention time was 970 s.

Consider `Cc1ccc(Nc2c(-c3ccc(Cl)cc3)nc3cc(C)ccn23)cc1`, for which the RP-LC retention time is 807 s. In turn, `Cc1cc(C)cc(NC(=O)C2CCN(C(=O)C3Sc4ccccc4NC3=O)CC2)c1` (centres undefined) yielded an RP-LC retention time of 818 s. Compound `Nc1nc(-c2ccccc2Cl)nn1C(=O)C1CC1` yielded an RP-LC retention time of 827 s. Under `Cc1ccccc1-c1nnc(CSc2nnc(NC(=O)c3ccc(Br)o3)s2)o1` stands 919 s; under `Cc1cc(F)ccc1NC(=O)C1CCN(S(=O)(=O)c2ccc3c(c2)sc(=O)n3C)CC1`, 844 s. On to `COc1cccc(-c2noc(C3CCCN3C(=O)Nc3cc(OC)ccc3OC)n2)c1` (centres undefined), for which the RP-LC retention time is 849 s.

Consider `O=C(CCC(=O)N1CCSc2ccccc21)N1CCN(c2ccccn2)CC1`, for which the RP-LC retention time came out at 618 s. As to `Cc1nc(-c2csc(S(=O)(=O)N3CCC(C(=O)NCCc4cccs4)CC3)c2)no1`, the RP-LC retention time was 860 s. The result for `COc1ccc(-c2nnc(N3CCC(C(=O)NCCN4CCCC4)CC3)o2)cc1` reads 590 s; that for `Cc1ccc(N2C=C(C(=O)N3CCOCC3)S(=O)(=O)c3ccc(Cl)cc32)cc1F`, 886 s. The result for `CS(=O)(=O)N(C1CCOCC1)C1CCN(C(=O)c2ccc(Cl)cc2)CC1` reads 840 s; that for `COCC(=O)Nc1cnc(N2CCCCC2)nc1`, 683 s; that for `O=C(c1ccccc1)N1CCN(c2cc(-c3cccs3)[nH]n2)CC1`, 754 s. As to `CCCCC(=O)N1CCCN(C2=NS(=O)(=O)C(c3ccc(C)c(C)c3)=C2C)CC1`, the RP-LC retention time is 886 s. Regarding `CC(C)n1c(=O)sc2cc(S(=O)(=O)N3CCC(C(=O)NC4CCCCC4)CC3)ccc21`, the RP-LC retention time stood at 935 s. Under `CN(CC1(C)CCOCC1)C(=O)COc1ccc(Cl)cc1` stands 816 s.

Consider `CCC(CC)C(=O)N1CCC2(CC1)C(=O)N(C)c1ccccc12`, for which the RP-LC retention time was 850 s. `CCn1cnc(S(=O)(=O)N2CCC(C(=O)NCc3cccs3)CC2)c1` had an RP-LC retention time of 658 s. `Cc1ccccc1CNC(=O)c1cn(-c2ccc(-c3nc(C(C)(C)C)no3)cn2)cn1` displayed an RP-LC retention time of 1100 s. The compound `CCC(=O)N(C)CCc1noc(-c2ccc(C(=O)NCCN(CC)CC)cc2)n1` yielded an RP-LC retention time of 597 s. Under `CCn1c(=O)oc2cc(-c3noc(-c4ccnn4C)n3)ccc21` stands 903 s; under `Cc1cc(=O)n(CC(=O)Nc2cc(C)on2)c(N2CCc3ccccc3C2)n1`, 699 s. `O=C(Cn1nc2c(Oc3ccc(Cl)cc3)nccn2c1=O)NC1CCCC1` yielded an RP-LC retention time of 810 s. The result for `CN1C[C@@H](NS(=O)(=O)N(C)C)C[C@@H]2c3cccc4c3c(cn4C)C[C@H]21` reads 698 s; that for `CSCC[C@H](NC(=O)C(C)Oc1cc(C)cc2oc(=O)c3c(c12)CCCC3)C(=O)O` (some centres undefined), 860 s. Under `CN(CCc1noc(-c2ccc(C(=O)NCCCN3CCCC3)cc2)n1)C(=O)c1ccc(F)cc1` stands 623 s; under `Cn1nc(CC(=O)Nc2ccccc2Br)c2ccccc2c1=O`, 774 s. The compound `O=C(CC1CCN(S(=O)(=O)c2ccc(Cl)s2)CC1)NCCc1c[nH]c2ccccc12` gave an RP-LC retention time of 945 s. Under `CCOC(=O)c1cc(C)nc2c1c(=O)n(Cc1cccc(C)c1)c(=O)n2C` stands 1130 s; under `Cc1ccc(-c2ccc(=O)n(CCCC(=O)Nc3ccc(-c4ccc(=O)[nH]n4)cc3)n2)cc1`, 678 s; under `Cc1ccc(-c2ncc(NC(=O)C(C)(C)C)cn2)cc1`, 968 s. In turn, `CCc1cccc(NC(=O)C2CCCN(c3nnc4ccccn34)C2)c1` (centres undefined) registered an RP-LC retention time of 734 s.

Turning to `CC(C)n1c(=O)c(Nc2cc(F)cc(F)c2)nc2ccncc21`, the RP-LC retention time was found to be 719 s.

For `c1ccc(O[C@H]2CN(C3CCNCC3)[C@H]2c2ccncc2)cc1`, the RP-LC retention time was 552 s. Under `Cc1cccc(N2CCN(C(=O)c3sc4ncccc4c3-n3cccc3)CC2)c1` stands 1060 s; under `Cc1ccccc1Cc1nc(-c2cccc(-c3ccn[nH]3)c2)no1`, 985 s. `O=C(Nc1nccs1)C1CCN(S(=O)(=O)c2cc(C(=O)N3CCOCC3)cs2)CC1` came in with an RP-LC retention time of 680 s. The result for `CCc1nnc2nc(N3CCN(C(=O)c4nccc5ccccc45)CC3)cc(C)n12` reads 559 s; that for `CCN1CCN(CCCNC(=O)c2ccc3c(c2)N(C)C(=O)C2CCCCN32)CC1` (centres undefined), 554 s; that for `Cc1ccc(NC(=O)C2CCCN(S(=O)(=O)c3cc(-c4noc(C)n4)cs3)C2)c(C)c1` (centres undefined), 983 s. Under `O=C(CCCS(=O)(=O)c1ccc(F)cc1)Nc1cccc(Cl)c1Cl` stands 850 s; under `O=C(CCS(=O)(=O)c1ccc(Cl)cc1)Nc1nccs1`, 679 s. The result for `CCN(CC)CCNC(=O)C1CCN(c2nnc3ccc(Cl)cn23)CC1` reads 565 s; that for `CC(=O)Nc1nnc(SCc2nnc(-c3ccccc3C)o2)s1`, 740 s.
